Tests used:
Type in all cases: cell-based
cyclin D1 = assay: Cyclin D1 levels by western blot; conditions: MCF-7 cells, treated five hours, vs vehicle
Description: FIG. 4 is graphs and a photograph showing that collagen VI stabilizes β-catenin and cyclin D1. […] A TCF/LEF luciferase reporter construct was transfected into MCF-7 cells and luciferase activity was analyzed after treatment either were vehicle (PBS; black bars), collagen VI (30 μg/ml; white bars) or collagen 1 (30 μg/ml; gray bars) in DME-BSA. […] The serum free medium used in the chase contained vehicle, collagen VI (30 μg/ml) or collagen 1 (30 μg/ml). After each time point, immunoprecipitations were performed for β-catenin and analyzed by SDS-PAGE followed by quantitation of β-catenin at each time point. […] Cells were then lysed and analyzed for cyclin D1 by western blot analysis. […] Panel D is a photograph of a western blot showing that collagen VI acts in part through NG2 in MCF-7 cells to stabilize cyclin D1. […] Results are shown as the MEAN±SEM in all cases.
Immunoblotting. Separation of proteins by sodium dodecyl sulfate (SDS)-poly acrylamide gel electrophoresis (PAGE) fluorography, and immunoblotting were performed as previously described (Scherer et al., 1994). […]
Collagen VI increases cyclin D1 protein stability through NG2/CSPG. […] MCF-7 cells pretreated with the αNG2/CSPG antibody were exposed to collagen VI protein, and cyclin D1 levels were monitored. […]

Tcf/Lef = assay: TOP FLASH (Tcf/Lef) reporter luciferase assay; conditions: MCF-7 cells, 30 μg/ml, 12 hours, vs vehicle
Description: (§1) FIG. 4 is graphs and a photograph showing that collagen VI stabilizes β-catenin and cyclin D1. […] A TCF/LEF luciferase reporter construct was transfected into MCF-7 cells and luciferase activity was analyzed after treatment either were vehicle (PBS; black bars), collagen VI (30 μg/ml; white bars) or collagen 1 (30 μg/ml; gray bars) in DME-BSA. […] The serum free medium used in the chase contained vehicle, collagen VI (30 μg/ml) or collagen 1 (30 μg/ml). After each time point, immunoprecipitations were performed for β-catenin and analyzed by SDS-PAGE followed by quantitation of β-catenin at each time point. […] MCF-7 cells were exposed for 3 hours to vehicle, human collagen VI (30 μg/ml) or collagen I (30 μg/ml). Cells were then lysed and analyzed for cyclin D1 by western blot analysis. […] Panel D is a photograph of a western blot showing that collagen VI acts in part through NG2 in MCF-7 cells to stabilize cyclin D1. […] Results are shown as the MEAN±SEM in all cases.
Luciferase Assays. […] Two days prior to the luciferase readout, cells were transiently transfected with the TOPFLASH (contains 4 Tcf/Lef binding elements) luciferase promoter construct as well as a thymidine kinase driven renilla luciferase construct as a transfection control vector (Promega, Madison, Wis.) (Albanese et al., 2003). […]

β-catenin = assay: Metabolic labeling pulse/chase of β-catenin; conditions: MCF-7 cells, 30 μg/ml, chase 30 min to 2 hrs
Description: as §1
Metabolic Labeling for β-catenin. MCF-7 cells, seeded in 6-well plates, were treated in methionine/cysteine deficient DMEM for 1 hour. […]
Collagen VI prevents degradation of endogenous β-catenin in MCF-7 cells. […] To test this, β-catenin levels were monitored over the course of several hours after a pulse/chase reaction. […]

collagen I: Human collagen I obtained from Collaborative Biomedical Products; comparison protein
cyclin D1 levels (cyclin D1): no significant change
induction of Tcf/Lef activity (Tcf/Lef): did not activate
degradation of 35S-labeled β-catenin (β-catenin): marginal stabilization

Source: patent US20090011438A1, “Collagen VI and Cancer” (priority 2004, published 2009)
